The record followed here is patent US8273769B2, “Phenoxy acetic acid derivatives” (Merck Serono SA, priority 2009, dated 2012).

A short description of data set [1]: In vivo pharmacokinetic evaluation in mouse. The conditions noted are these: mice; for clearance / AUC / bioavailability: female, C57BL/6, mouse, plasma; for clearance: iv, i.v. 1 mg/Kg; for AUC po (5 mg/Kg) / AUC: oral gavage 5 mg/Kg; for bioavailability: po, 5 mg/kg. Also noted: species or system C57BL/6 female mice. Here is the method:
In order to study the pharmacokinetic (PK) profile of test compounds in vivo, Sprague Dawley male rats or C57BL/6 female mice were dosed intravenously or after oral gavage. For both species, test compounds were dosed in solution at 1 mg/kg for i.v. route (10% ethanol, 10% N,N-dimethylacetamide, 30% propylene glycol, 50% water, v/v) and in suspension at 5 mg/kg (0.5% carboxymethylcellulose suspension, containing 0.25% Tween 20 in water) for oral gavage. PK profile in rat was obtained from 3 animals per dosing route and mouse PK profile was determined from 3 animals for each time points. The volume of administration was 2 mL/kg for i.v. dosing in both species and either 5 mL/kg (rat) or 10 mL/kg (mouse) for oral gavage. Blood samples (100 μL/time point) were collected at 0.083 (5 min), 0.25, 0.5, 1, 4, 7 and 24 hours post-dose for i.v. dosing, and at 0.5, 1, 4, 7 and 24 h for oral dosing, into heparin-Li+ containing tubes. For rats, all blood samples were collected trough a catheter in the carotid artery (placed in the artery the day before the experiment), under light isoflurane anesthesia, and stored on ice until centrifugation and plasma isolation. For mouse, blood samples were collected from intracardiac puncture at sacrifice at each time point and processed as described above for the rat. Plasma samples were stored frozen until analysis (−20° C. to −70° C.). For bioanalysis, samples were processed by protein precipitation (acetonitrile, formic acid 0.1%, addition of 3 volumes) after addition of one internal standard and analysed using a sensitive and selective LC/MS/MS method. An aliquot of the resulting supernatant was subject to LC/MS/MS analysis using a reverse phase column (Waters Xterra, C8, (3.5 μm particle size, 2.1×50 mm) and a short gradient (1 min) from (Solvent A) 85% water, 15% acetonitrile and 0.1% formic acid to (Solvent B) 90% acetonitrile, 10% water and 0.1% formic acid followed by isocratic conditions of Solvent B for 3.5 min at 0.4 mL/min. Column effluent was monitored using a Sciex API 4000 triple quadrupole mass spectrometer with a Turbo V electrospray ion source. Unknown concentrations of test compounds were determined using a calibration curve ranging from 1 to 3000 ng/mL.

In another data set the target is T1, CRTH2 (Homo sapiens, UniProt Q9Y5Y4).
T1 sequence (Q9Y5Y4 1-395): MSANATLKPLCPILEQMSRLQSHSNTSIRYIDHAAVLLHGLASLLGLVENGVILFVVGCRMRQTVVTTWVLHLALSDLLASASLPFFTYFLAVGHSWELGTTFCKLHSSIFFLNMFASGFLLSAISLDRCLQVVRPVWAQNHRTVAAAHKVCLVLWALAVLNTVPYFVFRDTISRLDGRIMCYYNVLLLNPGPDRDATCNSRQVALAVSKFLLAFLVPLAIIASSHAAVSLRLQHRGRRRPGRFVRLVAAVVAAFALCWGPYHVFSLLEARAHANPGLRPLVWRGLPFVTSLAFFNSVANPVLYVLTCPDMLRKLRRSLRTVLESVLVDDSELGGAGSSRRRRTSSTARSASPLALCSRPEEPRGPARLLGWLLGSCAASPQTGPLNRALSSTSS
Briefly: Cellular Dielectric Spectroscopy (CHO-CRTH2 cells). Type of data set: cell-based. On the set-up: expressed in transfected cells; host or cells: CHO-CRTH2 cells. The conditions noted are these: antagonist mode, fixed concentration of PGD2 (EC80). The gist of the method:
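Label-free cellular dielectric spectroscopy measured impedance changes (dZ) in CHO-CRTH2 cells. The cells were grown in HAM's F12 with 10% foetal calf serum and 400 μg/ml Geneticin, plated at 100000 cells/well in 96W electrode microplates, and kept 24 hours at 37° C. in 5% CO2. They were then washed twice with 135 μl of HBSS/10 mM HEPES pH 7.4/1% DMSO buffer. Signal was the max-min amplitude, with basal and maximum activity defined without and with PGD2 (EC80).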

The structures appear in SMILES notation.

`CCCS(=O)(=O)c1cccc(C#Cc2cc(Cl)ccc2OCC(=O)O)c1` [Example 17, (4-chloro-2-{[3-(propylsulfonyl)phenyl]ethynyl}phenoxy)acetic acid]: in data set [1], the clearance (usually the rate of elimination divided by the concentration) was 5 mL/min/kg, the Oral bioavailability is given as 37% and the “AUC po (5 mg/Kg)” value came out at 5768 ng·h/mL. Moreover, 22 nM corresponded to half-maximal inhibition on CRTH2 (IC50).

Turning to `CN(C)S(=O)(=O)c1cncc(C#Cc2cc(Cl)ccc2OCC(=O)O)c1` [Example 35, [4-chloro-2-({5-[(dimethylamino)sulfonyl]pyridin-3-yl}ethynyl)phenoxy]acetic acid], in data set [1], the clearance was 13.3 mL/min/kg; the area under the curve (AUC) (usually the area under the concentration-time curve, a measure of exposure) came out at 6210 ng·h/mL; the Oral bioavailability was 95%. In addition, on CRTH2, the IC50 (as a rule, the concentration needed to halve the response being measured) turned out to be 23 nM.

Take `CCCS(=O)(=O)c1ccc(C)c(C#Cc2cc(Cl)ccc2OCC(=O)O)c1` [Example 38, (4-chloro-2-{[2-methyl-5-(propylsulfonyl)phenyl]ethynyl}phenoxy)acetic acid]: in data set [1], the clearance is 16.7 mL/min/kg, the bioavailability worked out at 80% and the “AUC po (5 mg/Kg)” value turned out to be 3685 ng·h/mL. Besides, the concentration for half-maximal inhibition (IC50) on CRTH2 came out at 32 nM.

On to `CCCS(=O)(=O)c1ccc(F)c(C#Cc2cc(Cl)ccc2OCC(=O)O)c1` [Example 89, (4-chloro-2-{[2-fluoro-5-(propylsulfonyl)phenyl]ethynyl}phenoxy)acetic acid], for which, in data set [1], the clearance was 6.67 mL/min/kg, the AUC was 6750 ng·h/mL and the Oral bioavailability is on record as 63%. This compound also showed an IC50 on CRTH2 of 29 nM.

Consider `CCCS(=O)(=O)c1ccc(Cl)c(C#Cc2cc(Cl)ccc2OCC(=O)O)c1` [Example 101, (4-chloro-2-{[2-chloro-5-(propylsulfonyl)phenyl]ethynyl}phenoxy)acetic acid], for which, in data set [1], the clearance was 16.7 mL/min/kg, the bioavailability amounted to 110% and the “AUC po (5 mg/Kg)” value was found to be 5795 ng·h/mL. In addition, half-maximal inhibition against CRTH2 (IC50) required 38 nM.

Turning to `CC(C)S(=O)(=O)c1ccc(F)c(C#Cc2cc(Cl)ccc2OCC(=O)O)c1` [Example 102, (4-chloro-2-{[2-fluoro-5-(isopropylsulfonyl)phenyl]ethynyl}phenoxy)acetic acid], in data set [1], the clearance is 5.83 mL/min/kg, the bioavailability worked out at 130% and the “AUC po (5 mg/Kg)” value is 18691 ng·h/mL. The compound further yielded an IC50 against CRTH2 of 16 nM.

In the case of `CC(C)S(=O)(=O)c1ccc(Cl)c(C#Cc2cc(Cl)ccc2OCC(=O)O)c1` [Example 103, (4-chloro-2-{[2-chloro-5-(isopropylsulfonyl)phenyl]ethynyl}phenoxy)acetic acid], in data set [1], the clearance was 11.7 mL/min/kg, the Oral bioavailability is listed as 64% and the “AUC po (5 mg/Kg)” value came to 4889 ng·h/mL. Besides, half-maximal inhibition against CRTH2 (IC50) required 44 nM.

In the case of `CN(C)S(=O)(=O)c1ccc(F)c(C#Cc2cc(Cl)ccc2OCC(=O)O)c1` [Example 107, [4-chloro-2-({5-[(dimethylamino)sulfonyl]-2-fluorophenyl}ethynyl)phenoxy]acetic acid], in data set [1], the clearance is 10 mL/min/kg, the Oral bioavailability was 58% and the “AUC po (5 mg/Kg)” value came out at 4880 ng·h/mL. At CRTH2, the half-inhibitory concentration (IC50) was 23 nM.

For `O=C(O)COc1ccc(Cl)cc1C#Cc1ccc2c(c1)S(=O)(=O)c1ccccc1-2` [Example 154, {4-chloro-2-[(5,5-dioxidodibenzo[b,d]thien-3-yl)ethynyl]phenoxy}acetic acid], in data set [1], the clearance is 1.67 mL/min/kg, the Oral bioavailability is reported as 57% and the “AUC po (5 mg/Kg)” value was found to be 30942 ng·h/mL.
